# Data reported in patent publication US6215002A, “Pyrrolopyrrolone derivatives as inhibitors of neutrophil elastase” (priority 1996, dated 2001).
# Structures can show the parent of a compound that is named as a salt.
# Target: T1, human neutrophil elastase (Homo sapiens, UniProt P08246)
# T1 sequence (P08246 30-267): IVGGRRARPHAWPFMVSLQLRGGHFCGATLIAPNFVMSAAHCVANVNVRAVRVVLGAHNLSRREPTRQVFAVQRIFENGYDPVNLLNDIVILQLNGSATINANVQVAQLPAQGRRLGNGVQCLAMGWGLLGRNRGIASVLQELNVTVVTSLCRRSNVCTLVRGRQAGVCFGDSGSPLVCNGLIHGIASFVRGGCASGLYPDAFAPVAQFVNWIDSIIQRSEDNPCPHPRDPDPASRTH
# Assay: In vitro assay of human neutrophil elastase (HNE)
# Format: biochemical
# Details: 118 nM purified human neutrophil elastase, pH 8.6, 15 min incubation at 30° C., MeO-succinyl-alanyl-alanyl-prolyl-valyl-p-nitroanilide substrate; read-out: HNE IC50
# Experimental: In Vitro Assays of Human Neutrophil Elastase
# 118 nM purified human neutrophil elastase
# Suitable concentrations of compound under test diluted with water from a 10 mM stock solution in dimethylsulphoxide. Values above are final concentrations after the addition of substrate solution (see below).
# The mixture above is incubated for fifteen minutes at 30° C. at which time the remaining elastase activity is measured for 10 minutes in a BioTek 340i plate-reader, after the addition of 0.6 mM MeO-succinyl-alanyl-alanyl-prolyl-valyl-p-nitroanilide. The rate of increase in absorbance at 405 nm is proportional to elastase activity. Enzyme activity is plotted against concentration of inhibitor and an IC50 determined using curve fitting software.
# 1. The compounds were tested in the in vitro elastase test described earlier in the description.
row,Compound,IC50 [nM]
1,"CO[C@H]1C(=O)N(S(C)(=O)=O)[C@H]2CCN(C(=O)OCc3ccccc3)[C@H]12 (relative stereo) [Example 156, rel-(3aS,6R,6aS)-4-Methanesulfonyl-6-methoxy-5-oxo-hexahydro-pyrrolo[3,2-b]pyrrole-1-carboxylic acid benzyl ester]",160
2,"CCC[C@H]1C(=O)N(S(C)(=O)=O)[C@H]2CCN(C(=O)CCN3CCC(C(N)=O)CC3)[C@H]12 (relative stereo) [Example 98, rel-(3R,3aR,6aS)-1-[3-(4-Methanesulfonyl-5-oxo-6-propyl-hexahydro-pyrrolo[3,2-b]pyrrol-1-yl)-3-oxo-propyl]-piperidine-4-carboxylic acid amide hydrochloride]",159
3,"CCC[C@H]1C(=O)N(S(=O)(=O)c2ccc3ccccc3c2)[C@H]2CCN(C(=O)CCc3ccccn3)[C@H]12 (relative stereo) [Example 48, rel-(3R,3aR,6aS)-1-(Naphthalene-2-sulfonyl)-3-propyl-4-(3-pyridin-2yl-propionyl)-hexahydro-pyrrolo[3,2-b]pyrrol-2-one]",122
4,"CCC[C@H]1C(=O)N(S(C)(=O)=O)[C@H]2CCN(C(=O)CCCCCCCCCN3CCC3)[C@H]12 (relative stereo) [Example 72, rel-(3R,3aR,6aS)-4-(10-Azetidin-1-yl-decanoyl)-1-methanesulfonyl-3-propyl-hexahydro-pyrrolo[3,2-b]pyrrol-2-one DL-tartrate]",37
5,"CCC[C@H]1C(=O)N(S(C)(=O)=O)[C@H]2CCN(S(=O)(=O)c3cccc([N+](=O)[O-])c3)[C@H]12 (relative stereo) [Example 222, rel-(3R,3aR,6aS)-1-Methanesulfonyl-4-(3-nitro-benzenesulfonyl)-3-propyl-hexahydro-pyrrolo[3,2-b]pyrrol-2-one]",107
6,"CCC[C@H]1C(=O)N(S(=O)(=O)c2ccc3ccccc3c2)[C@H]2CCN(C(=O)CCCCCN3CCCCC3)[C@H]12 (relative stereo) [Example 40, rel-(3R,3aR,6aS)-1-(Naphthalene-2-sulfonyl)-4-(6-piperidin-1-yl-hexanoyl)-3-propyl-hexahydro-pyrrolo[3,2-b]pyrrol-2-one tartrate]",50
7,"CCC[C@H]1C(=O)N(S(C)(=O)=O)[C@H]2CCN(S(=O)(=O)Cc3cccc(-c4nnn[nH]4)c3)[C@H]12 (relative stereo) [Example 27, rel-(3R,3aR,6aS)-1-Methanesulfonyl-3-propyl-4-[3-(1H-tetrazol-5-yl)-phenylmethanesulfonyl]-hexahydro-pyrrolo[3,2-b]pyrrol-2-one]",55
8,"CCC[C@H]1C(=O)N(S(=O)(=O)c2ccc3ccccc3c2)[C@H]2CCN(C(=O)CCCN(C)C)[C@H]12 (relative stereo) [Example 25, rel-(3R,3aR,6aS)-4-(4-Dimethylamino-butyryl)-1-(naphthalene-2-sulfonyl)-3-propyl-hexahydro-pyrrolo[3,2-b]-pyrrol-2-one]",59
9,"CC(C)[C@H]1C(=O)N(S(C)(=O)=O)[C@H]2CCN(S(=O)(=O)c3ccc(CN(C)C)cc3)[C@H]12 (relative stereo) [Example 197, rel-(3R,3aR,6aS)-4-(4-Dimethylaminomethyl-benzenesulfonyl)-3-isopropyl-1-methanesulfonyl-hexahydro-pyrrolo[3,2-b]pyrrol-2-one hydrochloride]",153
10,"CCC[C@H]1C(=O)N(S(C)(=O)=O)[C@H]2CCN(C(=O)CCCN(C)c3ccccc3)[C@H]12 (relative stereo) [Example 88, rel-(3R,3aR,6aS)-1-Methanesulfonyl-4-[4-(methyl-phenyl-amino)-butyryl]-3-propyl-hexahydro-pyrrolo[3,2-b]pyrrol-2-one hydrochloride]",75
11,"CC(C)[C@H]1C(=O)N(S(C)(=O)=O)[C@H]2CCN(S(=O)(=O)c3ccc(CN4CCCCC4)cc3)[C@H]12 (relative stereo) [Example 198, rel-(3R,3aR,6aS)-3-Isopropyl-1-methanesulfonyl-(4-piperidin-1-ylmethyl-benzenesulfonyl)-hexahydro-pyrrolo[3,2-b]pyrrol-2-one hydrochloride]",127
12,"C=CC[C@@H]1C(=O)N(S(=O)(=O)c2ccc3ccccc3c2)[C@@H]2CCN(C(=O)OCc3ccccc3)[C@@H]12 [Example 53, (3aR,6S,6aS)-6-Allyl-4-(naphthalene-2-sulfonyl)-5-oxo-hexahydro-pyrrolo[3,2-n]pyrrole-1-carboxylic acid benzyl ester]",143
13,"CCC[C@H]1C(=O)N(S(C)(=O)=O)[C@H]2CCN(S(=O)(=O)c3ccccc3C(F)(F)F)[C@H]12 (relative stereo) [Example 225, rel-(3R,3aR,6aS)-1-Methanesulfonyl-3-propyl-4-(2-trifluoromethyl-benzenesulfonyl)-hexahydro-pyrrolo[3,2-b]pyrrol-2-one]",120
14,"CCC[C@H]1C(=O)N(S(=O)(=O)c2ccccn2)[C@H]2CCN(C(=O)CCN3CCCCC3)[C@H]12 (relative stereo) [Example 171, rel-(3R,3aR,6aS)-4-(3-Piperidin-1-yl-propionyl)-3-propyl-1-(pyridine-2-sulfonyl)-hexahydro-pyrrolo[3,2-b]pyrrol-2-one hydrochloride]",39
15,"C=CC[C@H]1C(=O)N(S(=O)(=O)c2cccc3ccccc23)[C@H]2CCN(C(=O)OCc3ccccc3)[C@H]12 (relative stereo) [Example 15, rel-(3sS,6R,6aR)-6-Allyl-4-(naphthalene-1-sulfonyl)-5-oxo-hexahydro-pyrrolo[3,2-b]pyrrole-1-carboxylic acid benzyl ester]",10
16,"CCC[C@H]1C(=O)N(S(=O)(=O)c2cccc3ccccc23)[C@H]2CCN(C(=O)C3CCN(C(=O)OC(C)(C)C)CC3)[C@H]12 (relative stereo) [Example 16, rel-(3aS,6R,6aR)-4-[4-(Naphthalene-1-sulfonyl)-5-oxo-6-propyl-hexahydro-pyrrolo[3,2-b]pyrrole-1-carbonyl-carbonyl]-piperidine-1-carboxylic acid tert-butyl]",267
17,"CCC[C@H]1C(=O)N(S(C)(=O)=O)[C@H]2CCN(C(=O)/C=C/c3ccc(CN4CCCCC4)cc3)[C@H]12 (relative stereo) [Example 133, rel-(3R,3aR,6aS)-1-Methanesulfonyl-4-[3-(4-piperidin-1-ylmethyl-phenyl)-(E)-acryloyl]-3-propyl-hexahydro-pyrrolo[3,2-b]pyrrol-2-one hydrochloride]",61
18,"CCC[C@H]1C(=O)N(S(=O)(=O)c2ccc(C#N)cc2)[C@H]2CCN(C(=O)CCCCCN3CCCCC3)[C@H]12 (relative stereo) [Example 205, rel-4-[2-Oxo-4-(6-piperidin-1-yl-hexanoyl)-3R-propyl-hexahydro-(3aR,6aS)-pyrrolo[3,2-b]pyrrole-1-sulfonyl]-benzonitrile DL-tartrate]",28
19,"CCC[C@H]1C(=O)N(S(C)(=O)=O)[C@H]2CCN(C(=O)CN3CCN(C)CC3)[C@H]12 (relative stereo) [Example 105, rel-(3R,3aR,6aS)-1-Methanesulfonyl-4-[(4-methyl-piperazin-1-yl)-acetyl]-3-propyl-hexahydro-pyrrolo[3,2-b]pyrrol-2-one hydrochloride]",193
20,"CCC[C@H]1C(=O)N(S(C)(=O)=O)[C@H]2CCN(S(=O)(=O)c3ccc(C(=O)NCCN(C)C)cc3)[C@H]12 (relative stereo) [Example 123, rel-N-(2-Dimethylamino-ethyl)-4-(4-methanesulfonyl-5-oxo-6R-propyl-hexahydro-(3aS,6aR)-pyrrolo[3,2-b]pyrrole-1-sulfonyl)-benzamide hydrochloride]",14
21,"CCC[C@H]1C(=O)N(S(C)(=O)=O)[C@H]2CCN(C(C)=O)[C@H]12 (relative stereo) [Example 28, rel-(3R,3aR,6aS)-4-Acetyl-1-methanesulfonyl-3-propyl-hexahydro-pyrrolo[3,2-b]pyrrol-2-one]",64
22,"CCC[C@H]1C(=O)N(S(C)(=O)=O)[C@H]2CCN(C(=O)c3cccnc3)[C@H]12 (relative stereo) [Example 247, rel-(3R,3aR,6aS)-1-Methanesulfonyl-3-propyl-4-(pyridine-3-carbonyl)-hexahydro-pyrrolo[3,2-b]pyrrol-2-one]",28
23,"CCC[C@H]1C(=O)N(S(=O)(=O)c2ccccc2)[C@H]2CCN(C(=O)CCCCCN3CCCCC3)[C@H]12 (relative stereo) [Example 206, rel-(3R,3aR,6aS)-1-Benzenesulfonyl-4-(6-piperidin-1-yl-hexanoyl)-3-propyl-hexahydro-pyrrol[3,2-b]pyrrol-2-one DL-tartrate]",87
24,"CC[C@H]1C(=O)N(S(=O)(=O)c2ccc3ccccc3c2)[C@H]2CCN(S(=O)(=O)CCCN3CCOCC3)[C@H]12 (relative stereo) [Example 35, rel-(3R,3aR,6aS)-3-Ethyl-4-(3-morpholin-4-yl)-propane-1-sulfonyl)-1-(naphthalene-2-sulfonyl)-hexahydro-pyrrolo[3,2-b]pyrrol-2-one meso-tartrate]",697
25,"CCC[C@H]1C(=O)N(S(=O)(=O)C(C)C)[C@H]2CCN(C(=O)CCN3CCCCC3)[C@H]12 (relative stereo) [Example 161, rel-(3R,3aR,6aS)-4-(3Piperidin-1-yl-propionyl)-1-(propane-2-sulfonyl)-3-propyl-hexahydro-pyrrol[3,2-b]pyrrol-2-one DL-tartrate]",1030
